From US7253169B2, “Aza compounds, pharmaceutical compositions and methods of use” (Gliamed, Inc., priority 1999, dated 2007)

Each compound was assayed against FKBP (Homo sapiens, UniProt P62942) (assay: Ki Test: inhibition of peptidyl-prolyl isomerase (rotamase) activity, chymotrypsin-coupled assay). Conditions: apparent Ki.
Type: biochemical
Text: Inhibition of the peptidyl-prolyl isomerase (rotamase) activity of the inventive compounds can be evaluated by known methods described in the literature (Harding et al., Nature, 1989, 341:758-760; Holt et al. J. Am. Chem. Soc., 115:9923-9938). These values are obtained as apparent Ki's and are presented for representative compounds in Table V. The cis-trans isomerization of an alanine-proline bond in a model substrate, N-succinyl-Ala-Ala-Pro-Phe-p-nitroanilide, is monitored spectrophotometrically in a chymotrypsin-coupled assay, which releases para-nitroanilide from the trans form of the substrate. The inhibition of this reaction caused by the addition of different concentrations of inhibitor is determined, and the data is analyzed as a change in first-order rate constant as a function of inhibitor concentration to yield the apparent Ki values.
In a plastic cuvette are added […] of ice cold assay buffer (25 mM HEPES, pH 7.8, 100 mM NaCl), […] of FKBP (2.5 mM in 10 mM Tris-Cl pH 7.5, 100 mM NaCl, 1 mM dithiothreitol), […] of chymotrypsin (50 mg/ml in 1 mM HCl) and […] of test compound at various concentrations in dimethyl sulfoxide. […]
The absorbance at 390 nm versus time is monitored for 90 seconds using a spectrophotometer and the rate constants are determined from the absorbance versus time data files.

FKBP, sequence (P62942 whole entry): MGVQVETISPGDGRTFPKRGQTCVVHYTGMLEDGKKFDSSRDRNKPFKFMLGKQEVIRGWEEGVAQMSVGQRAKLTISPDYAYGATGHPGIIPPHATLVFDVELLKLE

Row | Compound | Ki
1 | CCC(C)(C)C(=O)C(=O)N1CCCN1C(=O)CCCCc1ccccc1 [Compound 1, 3,3-dimethyl-N-[2-(5-phenylpentanoyl) -tetrahydro-1H-1-pyrazolyl]-1,2-pentanedione] | 1170 nM
2 | CCC(C)(C)C(=O)C(=O)N1CCCCN1C(=O)CCCCCc1cccnc1 [Compound 13, 3,3-dimethyl-2-[2-(6-(3-pyridyl)hexanoyl)-perhydropyridazinyl]-pentane-1,2-dione] | 3210 nM

Each compound was assayed on TH-stained dopaminergic neurons (assay: MPTP Model of Parkinson's Disease). Conditions: MPTP-lesioned CD1 mice, 4 mg/kg s.c.
Type: in vivo

Row | Compound | % TH recov 4 mg/kg s.c.
3 | CCC(C)(C)C(=O)C(=O)N1CCCN1C(=O)CCCCc1ccccc1 [Compound 1, 3,3-dimethyl-N-[2-(5-phenylpentanoyl) -tetrahydro-1H-1-pyrazolyl]-1,2-pentanedione] | 14%

Same assay, conditions: MPTP-lesioned CD1 mice, 10 mg/kg p.o.

Row | Compound | % TH recov 10 mg/kg p.o.
4 | CCC(C)(C)C(=O)C(=O)N1CCCCN1C(=O)OCCCc1ccccc1 [Compound 14, 3-phenylpropyl 2-(3,3-dimethyl-2-oxopentanoyl)-perhydropyridazine-carboxylate] | 3%

Same assay, conditions: Mus musculus, Neuron, po; MPTP-lesioned CD1 mice, 10 mg/kg p.o.; read-out: % TH recov 10 mg/kg p.o.

Row | Compound | % recovery of TH-stained dopaminergic neurons at 10 mg/kg
5 | CCC(C)(C)C(=O)C(=O)N1CCCN1C(=O)CCc1ccccc1 [Compound 2, 3,3-dimethyl-N-[2-(3-phenylpropanoyl)tetra-hydro-1H-1-pyrazolyl]-1,2-pentanedione] | 10%
6 | CCC(C)(C)C(=O)C(=O)N1CCCN1C(=O)CCC#Cc1cccnc1 [Compound 3, 3,3-dimethyl-1-[2-(5-(3-pyridyl)pent-4-ynoyl)-pyrazolidinyl]-pentane-1,2-dione] | 26%
7 | CCC(C)(C)C(=O)C(=O)N1CCCN1C(=O)CCCc1ccccc1 [Compound 5, 3,3-dimethyl-1-[2-(4-phenylbutanoyl)-pyrazolidinyl]pentane-1,2-dione] | 4%
8 | CCC(C)(C)C(=O)C(=O)N1CCCN1C(=O)CCCCCc1ccccc1 [Compound 6, 3,3-dimethyl-1-[2-(6-phenylhexanoyl)-pyrazolidinyl]pentane-1,2-dione] | 32%
9 | CCC(C)(C)C(=O)C(=O)N1CCCN1C(=O)CCCCc1cccnc1 [Compound 7, 3,3-dimethyl-1-[2-(5-(3-pyridyl)pentanoyl)-pyrazolidinyl]pentane-1,2-dione] | 57%
10 | CCC(C)(C)C(=O)C(=O)N1CCCCN1C(=O)CCCCCc1ccccc1 [Compound 12, 3,3-dimethyl-1-[2-(6-phenylhexanoyl)-perhydropyridazinyl]-pentane-1,2-dione] | 35%
11 | CCC(C)(C)C(=O)C(=O)N1CCCCN1C(=O)CCCCCc1cccnc1 [Compound 13, 3,3-dimethyl-2-[2-(6-(3-pyridyl)hexanoyl)-perhydropyridazinyl]-pentane-1,2-dione] | 18%
12 | CCC(C)(C)C(=O)C(=O)N1CCCCN1C(=O)OCCCCc1ccccc1 [Compound 15, 4-phenylbutyl 2-(3,3-dimethyl-2-oxopentanoyl)perhydro-pyridazinecarboxylate] | 21%
13 | CCC(C)(C)C(=O)C(=O)N1CCCCN1C(=O)OCCCCCc1ccccc1 [Compound 16, 5-phenylpentyl 2-(3,3-dimethyl-2-oxopentanoyl)perhydro-pyridazinecarboxylate] | 49%
14 | CCC(C)(C)C(=O)C(=O)N1CCCCN1C(=O)OCCCCc1cccnc1 [Compound 17, 4-(3-pyridyl)butyl 2-(3,3-dimethyl-2-oxopentanoyl)-perhydropyridazine-carboxylate] | 38%
15 | CCC(C)(C)C(=O)C(=O)N1CCCCN1C(=O)CCCCc1ccccc1 [Compound 18, 3,3-dimethyl-1-[2-({5-phenyl)pentanoyl)-perhydropyridazinyl]-pentane-1,2-dione] | 18%
16 | O=C(OCCCCc1ccccc1)N1CCCCN1S(=O)(=O)Cc1ccccc1 [Compound 106, 4-phenylbutyl 2-[benzylsunfonyl]-perhydropyridazine-carboxylate] | 23%
17 | O=C(NC1CCCCC1)N1CCCCN1C(=O)OCCCCc1ccccc1 [Compound 154, 4-phenylbutyl 2-(N-cyclohexylcarbamoyl)-perhydropyridazine-carboxylate] | 46%
